Where two headings read alike, the source gives them in different places.
Molecular target: T1, NRH-quinone oxidoreductase 2 (NQO2-F47) (Homo sapiens, UniProt P16083, L47F)
T1 sequence (P16083 1-231 L47F): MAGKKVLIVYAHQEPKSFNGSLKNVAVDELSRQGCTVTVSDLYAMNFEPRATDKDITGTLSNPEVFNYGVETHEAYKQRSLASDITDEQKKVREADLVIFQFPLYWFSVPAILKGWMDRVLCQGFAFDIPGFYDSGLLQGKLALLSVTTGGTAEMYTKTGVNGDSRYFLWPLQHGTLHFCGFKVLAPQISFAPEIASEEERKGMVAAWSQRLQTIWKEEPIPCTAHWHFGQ
Assay: thermal scanning fluorimetry KD,app (FAD fluorescence)
Format: binding

SMILES: O=c1oc2ccccc2c(O)c1Cc1c(O)c2ccccc2oc1=O [dicoumarol]
- Kd (read-out: Kd): 0.0337 ± 0.0026 mM

SMILES: NC(=O)c1cccnc1 [nicotinamide]
- Kd: 14.4 ± 1.1 mM
